Data: patent US20260226086A1, “COMPOUNDS AND COMPOSITIONS AS STAT3 DEGRADERS AND USES THEREOF” (REGENTS OF THE UNIVERSITY OF MICHIGAN, priority 2023, published 2026)
Where two headings read alike, the source gives them in different places.

How the values were obtained:
Type in all cases: cell-based
SU-DHL-1 cells = assay: CellTiter-Glo 2.0 cell viability assay, SU-DHL-1; details: 4 days
Outline: (§1)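 IC50 derived by four-parameter nonlinear regression on triplicate luminescence data (CellTiter-Glo 2.0), normalised to untreated controls. Cells plated at 1000/well received serial compound dilutions for 4 days at 37 °C with 5% CO2.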

STAT3 = target: T1, STAT3 (Homo sapiens, UniProt P40763); assay: HiBiT assay, STAT3 degradation in STAT3-HiBiT KI HeLa cells; details: read-out: STAT3 Degradation (HeLa 24 h HiBit) DC50
T1 construct: This cell line is a clone created by using CRISPR-Cas9 to fuse HiBiT to the 3′ end of STAT3 in HeLa cells; host or cells: STAT3-HiBiT KI HeLa cell line (CRISPR-Cas9 knock-in clone)
Outline: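 Luminescence of endogenous HiBiT-tagged STAT3 (C-terminal knock-in, HeLa) was measured with lytic Nano-Glo detection after 24 h exposure to serially diluted compounds at 37 °C. Cells plated at 20000/well; untreated cells served as control, and triplicate means were fit by four-parameter regression to give IC50.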

SUP-M2 cells = assay: CellTiter-Glo 2.0 cell viability assay, SUP-M2; details: 4 days
Outline: as §1

T1 sequence (P40763 whole entry): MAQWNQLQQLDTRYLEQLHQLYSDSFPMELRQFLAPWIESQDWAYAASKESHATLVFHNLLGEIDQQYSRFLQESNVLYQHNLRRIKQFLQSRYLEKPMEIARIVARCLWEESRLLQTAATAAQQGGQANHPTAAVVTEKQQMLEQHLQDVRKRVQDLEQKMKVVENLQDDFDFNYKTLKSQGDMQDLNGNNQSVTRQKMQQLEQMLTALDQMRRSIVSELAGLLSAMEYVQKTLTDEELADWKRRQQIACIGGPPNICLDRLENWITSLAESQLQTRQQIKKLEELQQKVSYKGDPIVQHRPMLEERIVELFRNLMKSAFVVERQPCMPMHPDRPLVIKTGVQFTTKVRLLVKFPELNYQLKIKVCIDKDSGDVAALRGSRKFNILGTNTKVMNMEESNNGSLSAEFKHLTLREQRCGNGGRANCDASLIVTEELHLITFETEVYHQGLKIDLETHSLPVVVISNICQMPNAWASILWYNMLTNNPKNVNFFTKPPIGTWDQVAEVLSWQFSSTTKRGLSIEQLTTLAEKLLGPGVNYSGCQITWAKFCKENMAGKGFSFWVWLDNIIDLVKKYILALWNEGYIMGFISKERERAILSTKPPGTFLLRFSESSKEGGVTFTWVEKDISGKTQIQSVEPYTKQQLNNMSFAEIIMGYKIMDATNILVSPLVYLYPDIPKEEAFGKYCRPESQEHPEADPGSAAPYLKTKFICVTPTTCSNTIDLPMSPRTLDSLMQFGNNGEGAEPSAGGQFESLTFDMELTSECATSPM

SMILES | IC50 (SU-DHL-1 cells; Homo sapiens, 96 h) [nM] | DC50 (STAT3; 24 h) [nM] | IC50 (SUP-M2 cells; SUP-M2, 96 h) [nM] | IC50 (SU-DHL-1 cells) [nM] | IC50 (SUP-M2 cells) [nM] | DC50 (STAT3) [nM]
Cc1ncsc1-c1ccc([C@H](C)NC(=O)[C@@H]2C[C@@H](O)CN2C(=O)[C@@H](n2cc(CC(=O)N3CC[C@H]4CC[C@@H](C(=O)N[C@@H](CCC(N)=O)C(=O)NC(c5ccccc5)c5ccccc5)N4C(=O)[C@@H](NC(=O)c4cc5cc(C(=O)P(=O)(O)O)ccc5[nH]4)C3)nn2)C(C)(C)C)cc1 [Compound 54, (2-(((5S,8S,10aR)-8-(((S)-5-amino-1-(benzhydrylamino)-1,5-dioxopentan-2-yl)carbamoyl)-3-(2-(1-((S)-1-((2S,4R)-4-hydroxy-2-(((S)-1-(4-(4-methylthiazol-5-yl)phenyl)ethyl)carbamoyl)pyrrolidin-1-yl)-3,3-dimethyl-1-oxobutan-2-yl)-1H-1,2,3-triazol-4-yl)acetyl)-6-oxodecahydropyrrolo[1,2-a][1,5]diazocin-5-yl)carbamoyl)-1H-indole-5-carbonyl)phosphonic acid] | > 1000 | > 1000 | > 1000 | – | – | –
Cc1ncsc1-c1ccc([C@H](C)NC(=O)[C@@H]2C[C@@H](O)CN2C(=O)[C@@H](n2cc(CCC(=O)N3CC[C@H]4CC[C@@H](C(=O)N[C@@H](CCC(N)=O)C(=O)NC(c5ccccc5)c5ccccc5)N4C(=O)[C@@H](NC(=O)c4cc5cc(C(=O)P(=O)(O)O)ccc5[nH]4)C3)nn2)C(C)(C)C)cc1 [Compound 55, (2-(((5S,8S,10aR)-8-(((S)-5-amino-1-(benzhydrylamino)-1,5-dioxopentan-2-yl)carbamoyl)-3-(3-(1-((S)-1-((2S,4R)-4-hydroxy-2-(((S)-1-(4-(4-methylthiazol-5-yl)phenyl)ethyl)carbamoyl)pyrrolidin-1-yl)-3,3-dimethyl-1-oxobutan-2-yl)-1H-1,2,3-triazol-4-yl)propanoyl)-6-oxodecahydropyrrolo[1,2-a][1,5]diazocin-5-yl)carbamoyl)-1H-indole-5-carbonyl)phosphonic acid] | > 1000 | > 1000 | > 1000 | – | – | –
Cc1ncsc1-c1ccc([C@H](C)NC(=O)[C@@H]2C[C@@H](O)CN2C(=O)[C@@H](n2cc(CCCC(=O)N3CC[C@H]4CC[C@@H](C(=O)N[C@@H](CCC(N)=O)C(=O)NC(c5ccccc5)c5ccccc5)N4C(=O)[C@@H](NC(=O)c4cc5cc(C(=O)P(=O)(O)O)ccc5[nH]4)C3)nn2)C(C)(C)C)cc1 [Compound 56, (2-(((5S,8S,10aR)-8-(((S)-5-amino-1-(benzhydrylamino)-1,5-dioxopentan-2-yl)carbamoyl)-3-(4-(1-((S)-1-((2S,4R)-4-hydroxy-2-(((S)-1-(4-(4-methylthiazol-5-yl)phenyl)ethyl)carbamoyl)pyrrolidin-1-yl)-3,3-dimethyl-1-oxobutan-2-yl)-1H-1,2,3-triazol-4-yl)butanoyl)-6-oxodecahydropyrrolo[1,2-a][1,5]diazocin-5-yl)carbamoyl)-1H-indole-5-carbonyl)phosphonic acid] | 100 to 1000 | > 1000 | 100 to 1000 | – | – | –
Cc1ncsc1-c1ccc([C@H](C)NC(=O)[C@@H]2C[C@@H](O)CN2C(=O)[C@@H](n2cc(CCCCC(=O)N3CC[C@H]4CC[C@@H](C(=O)N[C@@H](CCC(N)=O)C(=O)NC(c5ccccc5)c5ccccc5)N4C(=O)[C@@H](NC(=O)c4cc5cc(C(=O)P(=O)(O)O)ccc5[nH]4)C3)nn2)C(C)(C)C)cc1 [Compound 57, (2-(((5S,8S,10aR)-8-(((S)-5-amino-1-(benzhydrylamino)-1,5-dioxopentan-2-yl)carbamoyl)-3-(5-(1-((S)-1-((2S,4R)-4-hydroxy-2-(((S)-1-(4-(4-methylthiazol-5-yl)phenyl)ethyl)carbamoyl)pyrrolidin-1-yl)-3,3-dimethyl-1-oxobutan-2-yl)-1H-1,2,3-triazol-4-yl)pentanoyl)-6-oxodecahydropyrrolo[1,2-a][1,5]diazocin-5-yl)carbamoyl)-1H-indole-5-carbonyl)phosphonic acid] | – | 100 to 1000 | – | 100 to 1000 | 100 to 1000 | –
Cc1ncsc1-c1ccc([C@H](C)NC(=O)[C@@H]2C[C@@H](O)CN2C(=O)[C@@H](n2cc(CCCCCC(=O)N3CC[C@H]4CC[C@@H](C(=O)N[C@@H](CCC(N)=O)C(=O)NC(c5ccccc5)c5ccccc5)N4C(=O)[C@@H](NC(=O)c4cc5cc(C(=O)P(=O)(O)O)ccc5[nH]4)C3)nn2)C(C)(C)C)cc1 [Compound 58, (2-(((5S,8S,10aR)-8-(((S)-5-amino-1-(benzhydrylamino)-1,5-dioxopentan-2-yl)carbamoyl)-3-(6-(1-((S)-1-((2S,4R)-4-hydroxy-2-(((S)-1-(4-(4-methylthiazol-5-yl)phenyl)ethyl)carbamoyl)pyrrolidin-1-yl)-3,3-dimethyl-1-oxobutan-2-yl)-1H-1,2,3-triazol-4-yl)hexanoyl)-6-oxodecahydropyrrolo[1,2-a][1,5]diazocin-5-yl)carbamoyl)-1H-indole-5-carbonyl)phosphonic acid] | > 1000 | > 1000 | 100 to 1000 | – | – | –
Cc1ncsc1-c1ccc([C@H](C)NC(=O)[C@@H]2C[C@@H](O)CN2C(=O)[C@@H](n2cc(CCCCCCC(=O)N3CC[C@H]4CC[C@@H](C(=O)N[C@@H](CCC(N)=O)C(=O)NC(c5ccccc5)c5ccccc5)N4C(=O)[C@@H](NC(=O)c4cc5cc(C(=O)P(=O)(O)O)ccc5[nH]4)C3)nn2)C(C)(C)C)cc1 [Compound 59, (2-(((5S,8S,10aR)-8-(((S)-5-amino-1-(benzhydrylamino)-1,5-dioxopentan-2-yl)carbamoyl)-3-(7-(1-((S)-1-((2S,4R)-4-hydroxy-2-(((S)-1-(4-(4-methylthiazol-5-yl)phenyl)ethyl)carbamoyl)pyrrolidin-1-yl)-3,3-dimethyl-1-oxobutan-2-yl)-1H-1,2,3-triazol-4-yl)heptanoyl)-6-oxodecahydropyrrolo[1,2-a][1,5]diazocin-5-yl)carbamoyl)-1H-indole-5-carbonyl)phosphonic acid] | > 1000 | – | > 1000 | – | – | > 1000
Cc1ncsc1-c1ccc([C@H](C)NC(=O)[C@@H]2C[C@@H](O)CN2C(=O)[C@@H](n2cc(CCCCCCCC(=O)N3CC[C@H]4CC[C@@H](C(=O)N[C@@H](CCC(N)=O)C(=O)NC(c5ccccc5)c5ccccc5)N4C(=O)[C@@H](NC(=O)c4cc5cc(C(=O)P(=O)(O)O)ccc5[nH]4)C3)nn2)C(C)(C)C)cc1 [Compound 60, (2-(((5S,8S,10aR)-8-(((S)-5-amino-1-(benzhydrylamino)-1,5-dioxopentan-2-yl)carbamoyl)-3-(8-(1-((S)-1-((2S,4R)-4-hydroxy-2-(((S)-1-(4-(4-methylthiazol-5-yl)phenyl)ethyl)carbamoyl)pyrrolidin-1-yl)-3,3-dimethyl-1-oxobutan-2-yl)-1H-1,2,3-triazol-4-yl)octanoyl)-6-oxodecahydropyrrolo[1,2-a][1,5]diazocin-5-yl)carbamoyl)-1H-indole-5-carbonyl)phosphonic acid] | > 1000 | > 1000 | > 1000 | – | – | –
Cc1ncsc1-c1ccc([C@H](C)NC(=O)[C@@H]2C[C@@H](O)CN2C(=O)[C@@H](n2cc(CCCCCCCCC(=O)N3CC[C@H]4CC[C@@H](C(=O)N[C@@H](CCC(N)=O)C(=O)NC(c5ccccc5)c5ccccc5)N4C(=O)[C@@H](NC(=O)c4cc5cc(C(=O)P(=O)(O)O)ccc5[nH]4)C3)nn2)C(C)(C)C)cc1 [Compound 61, (2-(((5S,8S,10aR)-8-(((S)-5-amino-1-(benzhydrylamino)-1,5-dioxopentan-2-yl)carbamoyl)-3-(9-(1-((S)-1-((2S,4R)-4-hydroxy-2-(((S)-1-(4-(4-methylthiazol-5-yl)phenyl)ethyl)carbamoyl)pyrrolidin-1-yl)-3,3-dimethyl-1-oxobutan-2-yl)-1H-1,2,3-triazol-4-yl)nonanoyl)-6-oxodeca-hydropyrrolo[1,2-a][1,5]diazocin-5-yl)carbamoyl)-1H-indole-5-carbonyl)phosphonic acid] | > 1000 | > 1000 | > 1000 | – | – | –
